Data reported in patent US20230102860A1, “METHOD FOR C[…] FUNGICIDE-RESISTANT SOYBEAN RUST FUNGI” (SUMITOMO CHEMICAL COMPANY, LIMITED, priority 2020, published 2023).

The compounds below were run on soybean rust fungus (Phakopsora pachyrhizi) having an amino acid substitution of F129L on mitochondrial cytochrome b protein (assay: Comparative Test Example 1: soybean leaf disk test at 50 ppm or 12.5 ppm, lesion area (Table A, Table B)). Conditions: 12.5 ppm.
Assay type: in vivo
Experimental: A soybean leaf (cv; Kurosengoku) was punched out to 1 cm diameter to prepare a leaf disk. Each 1 mL of 1.2% agar medium was dispensed in 24 well microplate. A piece of the leaf disk was placed on each well. To a mixture of 0.5 μL of Sorpol (registered trademark) 1200KX, 4.5 μL of DMSO, and 5 μL of xylene was added 20 μL of a DMSO solution containing 10,000 ppm of the test compound. The resulting mixture was diluted with ion exchange water to prepare a spray solution containing a predetermined concentration of the test compound. The spray solution was sprayed in 10 μL per one leaf disk. After 1 day, an aqueous suspension of spores of soybean rust fungus (Phakopsora pachyrhizi) having an amino acid substitution of F129L on mitochondrial cytochrome b protein (1.0×10^5/mL) was inoculated onto the leaf disks. After the inoculation, the microplate was placed in a growth chamber (light on for 6 hours, light off for 18 hours, 23° C. temperature, 60% humidity). After 1 day, the leaf disks were air-dried to disappear water droplets on the surface of the leaf disk, and the microplate was placed again in the growth chamber for 10 to 14 days. Thereafter, a lesion area of soybean rust disease was assessed. […] Here the untreated means that the spray solution containing the test compound was not sprayed onto the leaf disk.
The test was conducted by using as a test compound the present compound 3, 5, 11, 59, 200, 202, 207, 214, 222, 294 or 391, or azoxystrobin, dimoxystrobin or metominostrobin, at the predetermined concentration of 50 ppm or 12.5 ppm according to a method described in the Test Example 1. The results thereof are indicated in [Table A] and [Table B].
With CNC(=O)/C(=N/OC)c1ccccc1COc1cc(C)ccc1C the “Lesion Area at each concentration (%)” value was 100%.
CO/C=C(/C(=O)OC)c1ccccc1/C=C/C1CC1(F)F (stereo not shown) was tested, and the “Lesion Area at each concentration (%)” value was 0%.
CO/C=C(/C(=O)OC)c1ccc(Cl)cc1C#CCC1CCCC1 was tested, and the “Lesion Area at each concentration (%)” value was 0%.
With CO/C=C(/C(=O)OC)c1c(C)cccc1CO/N=C(\C)c1ccc(Cl)cc1 the “Lesion Area at each concentration (%)” value was 0%.
With CO/C=C(/C(=O)OC)c1ccccc1Oc1cc(Oc2ccccc2C#N)ncn1 the “Lesion Area at each concentration (%)” value was 100%.
For CCCCC#Cc1cc(Cl)ccc1/C(=C\OC)C(=O)OC, the “Lesion Area at each concentration (%)” value was 0%.
For CO/C=C(/C(=O)OC)c1ccc(OC)cc1C#CCC(C)C, the “Lesion Area at each concentration (%)” value was 0%.
For CO/C=C(/C(=O)OC)c1ccccc1COc1ccn(-c2ccc(Cl)cc2)n1, the “Lesion Area at each concentration (%)” value was 10%.
With CO/C=C(/C(=O)OC)c1ccccc1/C=C/C1CC1C (stereo not shown) the “Lesion Area at each concentration (%)” value was 0%.
CNC(=O)/C(=N/OC)c1ccccc1COc1ccn(-c2ccc(Cl)cc2)n1 was tested, and the “Lesion Area at each concentration (%)” value was 10%.
For CCc1ccc(/C(=C\OC)C(=O)OC)c(/C=C/C2CC2)c1, the “Lesion Area at each concentration (%)” value was 0%.
For CO/C=C(/C(=O)OC)c1ccc(Cl)cc1C#CCC(C)C, the “Lesion Area at each concentration (%)” value was 0%.
With CNC(=O)/C(=N/OC)c1ccccc1Oc1ccccc1 the “Lesion Area at each concentration (%)” value was 100%.
CO/C=C(/C(=O)OC)c1ccc(Cl)cc1/C=C/C1CC1(C)C (stereo not shown) was tested, and the “Lesion Area at each concentration (%)” value was 0%.

Same assay, conditions: 50 ppm
For CNC(=O)/C(=N/OC)c1ccccc1COc1cc(C)ccc1C, the “Lesion Area at each concentration (%)” value was 100%.
With CO/C=C(/C(=O)OC)c1ccccc1/C=C/C1CC1(F)F (stereo not shown) the “Lesion Area at each concentration (%)” value was 0%.
For CO/C=C(/C(=O)OC)c1ccc(Cl)cc1C#CCC1CCCC1, the “Lesion Area at each concentration (%)” value was 0%.
CO/C=C(/C(=O)OC)c1c(C)cccc1CO/N=C(\C)c1ccc(Cl)cc1 was tested, and the “Lesion Area at each concentration (%)” value was 0%.
For CO/C=C(/C(=O)OC)c1ccccc1Oc1cc(Oc2ccccc2C#N)ncn1, the “Lesion Area at each concentration (%)” value was 100%.
With CCCCC#Cc1cc(Cl)ccc1/C(=C\OC)C(=O)OC the “Lesion Area at each concentration (%)” value was 0%.
For CO/C=C(/C(=O)OC)c1ccc(OC)cc1C#CCC(C)C, the “Lesion Area at each concentration (%)” value was 0%.
In the case of CO/C=C(/C(=O)OC)c1ccccc1COc1ccn(-c2ccc(Cl)cc2)n1, the “Lesion Area at each concentration (%)” value is reported as 0%.
With CO/C=C(/C(=O)OC)c1ccccc1/C=C/C1CC1C (stereo not shown) the “Lesion Area at each concentration (%)” value was 0%.
For CNC(=O)/C(=N/OC)c1ccccc1COc1ccn(-c2ccc(Cl)cc2)n1, the “Lesion Area at each concentration (%)” value was 0%.
CCc1ccc(/C(=C\OC)C(=O)OC)c(/C=C/C2CC2)c1 was tested, and the “Lesion Area at each concentration (%)” value was 0%.
For CO/C=C(/C(=O)OC)c1ccc(Cl)cc1C#CCC(C)C, the “Lesion Area at each concentration (%)” value was 0%.
For CNC(=O)/C(=N/OC)c1ccccc1Oc1ccccc1, the “Lesion Area at each concentration (%)” value was 100%.
With CO/C=C(/C(=O)OC)c1ccc(Cl)cc1/C=C/C1CC1(C)C (stereo not shown) the “Lesion Area at each concentration (%)” value was 0%.
